# PubChem BioAssay AID256 (DTP/NCI, 2004)
# Where “and” joins values, the source holds several entries; their conditions need not be identical. Identical values can stand only once. Toxic doses and inconclusive results are not listed.
# System: CD2F1 mice, L1210 leukemia ip, survival T/C
# Test: NCI In Vivo Anticancer Drug Screen. Data for tumor model L1210 Leukemia (intraperitoneal) in CD2F1 (CDF1) mice
# Settings: higher = longer survival
# Method in brief: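 Each value reflects a quotient of treated over vehicle control outcomes in mice with a transplanted tumor.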
# [1] = endpoint: mean survival time, dose: 25.0 mg/kg/injection, schedule: Q04DX003 (ip), vehicle: saline
# [2] = endpoint: mean survival time, dose: 100.0 mg/kg/injection, schedule: Q01DX001 (ip), vehicle: saline
# [3] = endpoint: mean survival time, dose: 200.0 mg/kg/injection, schedule: Q01DX001 (ip), vehicle: saline
# [4] = endpoint: mean survival time, dose: 100.0 mg/kg/injection, schedule: Q04DX002 (ip), vehicle: saline with Tween-80
# [5] = endpoint: mean survival time, dose: 100.0 mg/kg/injection, schedule: Q04DX003 (ip), vehicle: saline with Tween-80
# [6] = endpoint: mean survival time, dose: 400.0 mg/kg/injection, schedule: Q04DX003 (ip), vehicle: saline with Tween-80
# [7] = endpoint: mean survival time, dose: 12.5 mg/kg/injection, schedule: Q01DX009 (ip), vehicle: saline with Tween-80
# [8] = endpoint: mean survival time, dose: 25.0 mg/kg/injection, schedule: Q01DX009 (ip), vehicle: saline with Tween-80
# [9] = endpoint: mean survival time, dose: 50.0 mg/kg/injection, schedule: Q01DX009 (ip), vehicle: saline with Tween-80
# [10] = endpoint: mean survival time, dose: 100.0 mg/kg/injection, schedule: Q01DX009 (ip), vehicle: saline with Tween-80
# [11] = endpoint: mean survival time, dose: 200.0 mg/kg/injection, schedule: Q01DX009 (ip), vehicle: saline with Tween-80
# [12] = endpoint: mean survival time, dose: 400.0 mg/kg/injection, schedule: Q01DX009 (ip), vehicle: saline with Tween-80
# [13] = endpoint: mean survival time, dose: 200.0 mg/kg/injection, schedule: Q04DX003 (ip), vehicle: saline with Tween-80
# [14] = endpoint: mean survival time, dose: 50.0 mg/kg/injection, schedule: Q04DX003 (ip), vehicle: saline
# [15] = endpoint: mean survival time, dose: 100.0 mg/kg/injection, schedule: Q04DX003 (ip), vehicle: saline
# [16] = endpoint: mean survival time, dose: 200.0 mg/kg/injection, schedule: Q04DX003 (ip), vehicle: saline
structure (smiles),measurement,setting,value
[Cl][Pt+2][Cl].[NH-]CC1(C[NH-])CCCC1,T/C,"endpoint: mean survival time, dose: 1.56 mg/kg/injection, schedule: Q04DX003 (ip), vehicle: saline",122 % of control
same,T/C,"endpoint: mean survival time, dose: 3.12 mg/kg/injection, schedule: Q04DX003 (ip), vehicle: saline",152 % of control
same,T/C,"endpoint: mean survival time, dose: 6.25 mg/kg/injection, schedule: Q04DX003 (ip), vehicle: saline",197 % of control
same,T/C,"endpoint: mean survival time, dose: 12.5 mg/kg/injection, schedule: Q04DX003 (ip), vehicle: saline with Tween-80",160 % of control
same,T/C,"endpoint: mean survival time, dose: 12.5 mg/kg/injection, schedule: Q04DX003 (ip), vehicle: saline",260 % of control
same,T/C,"endpoint: mean survival time, dose: 25.0 mg/kg/injection, schedule: Q04DX003 (ip), vehicle: saline with Tween-80",98 % of control
same,T/C,[1],114 % of control
same,T/C,"endpoint: median survival time, dose: 1.0 mg/kg/injection, schedule: Q01DX009 (ip), vehicle: saline",232 % of control
same,T/C,"endpoint: median survival time, dose: 2.0 mg/kg/injection, schedule: Q01DX009 (ip), vehicle: saline",175 % of control
same,T/C,"endpoint: median survival time, dose: 4.0 mg/kg/injection, schedule: Q01DX001 (ip), vehicle: saline",201 % of control
same,T/C,"endpoint: median survival time, dose: 4.0 mg/kg/injection, schedule: Q01DX009 (ip), vehicle: saline",101 % of control
same,T/C,"endpoint: median survival time, dose: 8.0 mg/kg/injection, schedule: Q01DX001 (ip), vehicle: saline",200 % of control
same,T/C,"endpoint: median survival time, dose: 8.0 mg/kg/injection, schedule: Q01DX009 (ip), vehicle: saline",97 % of control
same,T/C,"endpoint: median survival time, dose: 12.0 mg/kg/injection, schedule: Q01DX001 (ip), vehicle: saline",104 % of control
same,T/C,"endpoint: median survival time, dose: 18.0 mg/kg/injection, schedule: Q01DX001 (ip), vehicle: saline",97 % of control
CCOc1ccc(C(C)c2cc3c(cc2OC)OCO3)cc1 (stereo unspecified),T/C,"endpoint: median survival time, dose: 25.0 mg/kg/injection, schedule: Q01DX009 (ip), vehicle: distilled water + Tween-80",104 % of control
same,T/C,"endpoint: median survival time, dose: 25.0 mg/kg/injection, schedule: Q01DX009 (ip), vehicle: saline with Tween-80",117 % of control
same,T/C,"endpoint: median survival time, dose: 50.0 mg/kg/injection, schedule: Q01DX009 (ip), vehicle: distilled water + Tween-80",104 % of control
same,T/C,"endpoint: median survival time, dose: 50.0 mg/kg/injection, schedule: Q01DX009 (ip), vehicle: saline with Tween-80",109 % of control
same,T/C,"endpoint: median survival time, dose: 100.0 mg/kg/injection, schedule: Q01DX009 (ip), vehicle: distilled water + Tween-80",109 % of control
same,T/C,"endpoint: median survival time, dose: 100.0 mg/kg/injection, schedule: Q01DX009 (ip), vehicle: saline with Tween-80",110 % of control
same,T/C,"endpoint: median survival time, dose: 200.0 mg/kg/injection, schedule: Q01DX009 (ip), vehicle: distilled water + Tween-80",124 % of control
same,T/C,"endpoint: median survival time, dose: 200.0 mg/kg/injection, schedule: Q01DX009 (ip), vehicle: saline with Tween-80",150 % of control
O=C(O)CC1=C(c2ccc3ccccc3c2)CCC1=O,T/C,[2],98 % of control
same,T/C,[3],98 % of control
same,T/C,"endpoint: mean survival time, dose: 400.0 mg/kg/injection, schedule: Q01DX001 (ip), vehicle: saline",98 % of control
CC1=C(/C=C/C(C)(O)CC2=NC(C)(C)CO2)C(C)(C)CCC1 (stereo unspecified),T/C,"endpoint: mean survival time, dose: 25.0 mg/kg/injection, schedule: Q04DX002 (ip), vehicle: saline with Tween-80",101 % of control
same,T/C,"endpoint: mean survival time, dose: 50.0 mg/kg/injection, schedule: Q04DX002 (ip), vehicle: saline with Tween-80",93 % of control
same,T/C,[4],93 % of control
same,T/C,[5],91 % of control
same,T/C,[6],86 % of control
C[Si](C)(C)O/C=C1\CCCCC1=O,T/C,"endpoint: mean survival time, dose: 6.25 mg/kg/injection, schedule: Q01DX009 (ip), vehicle: saline with Tween-80",98 % of control and 100 % of control
same,T/C,[7],96 % of control and 98 % of control
same,T/C,[8],91 % of control and 100 % of control
same,T/C,[9],93 % of control and 100 % of control
same,T/C,[10],93 % of control and 102 % of control
same,T/C,[11],105 % of control
O=C(C=C(C(F)(F)F)C(F)(F)F)c1ccc(F)cc1,T/C,"endpoint: mean survival time, dose: 100.0 mg/kg/injection, schedule: Q04DX003 (ip), vehicle: other",88 % of control
CCCCOC(=O)COc1ccc(F)cc1,T/C,[4],94 % of control
same,T/C,"endpoint: mean survival time, dose: 200.0 mg/kg/injection, schedule: Q04DX002 (ip), vehicle: saline with Tween-80",94 % of control
same,T/C,"endpoint: mean survival time, dose: 400.0 mg/kg/injection, schedule: Q04DX002 (ip), vehicle: saline with Tween-80",94 % of control
Cn1c(=O)cc(C=Nc2ccc(O)cc2)c2ccccc21,T/C,[10],94 % of control
same,T/C,[11],90 % of control
same,T/C,[12],97 % of control
CC(=O)SC(Cc1ccccc1)(Cc1ccccc1)SC(C)=O,T/C,[5],97 % of control
same,T/C,[13],95 % of control
same,T/C,[6],100 % of control
NC1CCC(=O)NC1c1ccccc1 (stereo unspecified),T/C,"endpoint: mean survival time, dose: 100.0 mg/kg/injection, schedule: Q04DX002 (ip), vehicle: saline",97 % of control
same,T/C,"endpoint: mean survival time, dose: 200.0 mg/kg/injection, schedule: Q04DX002 (ip), vehicle: saline",101 % of control
same,T/C,"endpoint: mean survival time, dose: 400.0 mg/kg/injection, schedule: Q04DX002 (ip), vehicle: saline",101 % of control
NNC(=O)NO,T/C,[7],166 % of control
same,T/C,[8],162 % of control
same,T/C,[9],103 % of control
same,T/C,[10],97 % of control
same,T/C,[11],87 % of control
CC(=O)C(C(C)=O)c1ccc([N+](=O)[O-])cc1[N+](=O)[O-].CC(=O)C(C(C)=O)c1ccc([N+](=O)[O-])cc1[N+](=O)[O-].[Cu],T/C,"endpoint: median survival time, dose: 50.0 mg/kg/injection, schedule: Q04DX002 (ip), vehicle: saline with Tween-80",88 % of control
same,T/C,"endpoint: median survival time, dose: 100.0 mg/kg/injection, schedule: Q04DX002 (ip), vehicle: saline with Tween-80",88 % of control
same,T/C,"endpoint: median survival time, dose: 400.0 mg/kg/injection, schedule: Q04DX002 (ip), vehicle: saline with Tween-80",88 % of control
Nc1nc(N)c2c(n1)CN(c1ccc(Cl)cc1)C2,T/C,"endpoint: mean survival time, dose: 75.0 mg/kg/injection, schedule: Q01DX001 (ip), vehicle: saline",104 % of control
same,T/C,"endpoint: mean survival time, dose: 150.0 mg/kg/injection, schedule: Q01DX001 (ip), vehicle: saline",96 % of control
same,T/C,"endpoint: mean survival time, dose: 300.0 mg/kg/injection, schedule: Q01DX001 (ip), vehicle: saline",98 % of control
O=C1CCCC2C3CC(CN12)C1CCCCN1C3 (stereo unspecified),T/C,[8],103 % of control
same,T/C,[9],101 % of control
same,T/C,[10],100 % of control
same,T/C,[5],97 % of control
COC(=O)C(C)C(C)(O)C(C)(C)C (stereo unspecified),T/C,[8],100 % of control
same,T/C,[1],103 % of control
same,T/C,[9],101 % of control
same,T/C,[14],103 % of control
same,T/C,[10],102 % of control
same,T/C,[15],98 % of control
CCC(C#N)=C1CCCCC1,T/C,[1],93 % of control
same,T/C,[14],91 % of control
same,T/C,[15],91 % of control
CCCNCCN(CC)CC,T/C,"endpoint: mean survival time, dose: 50.0 mg/kg/injection, schedule: Q01DX009 (ip), vehicle: saline",96 % of control
same,T/C,"endpoint: mean survival time, dose: 100.0 mg/kg/injection, schedule: Q01DX009 (ip), vehicle: saline",93 % of control
same,T/C,[15],100 % of control
same,T/C,"endpoint: mean survival time, dose: 200.0 mg/kg/injection, schedule: Q01DX009 (ip), vehicle: saline",96 % of control
same,T/C,[16],96 % of control
Cn1c(CC(O)(C(F)(F)F)C(F)(F)F)c(C(O)(C(F)(F)F)C(F)(F)F)c2ccccc21,T/C,"endpoint: mean survival time, dose: 5.0 mg/kg/injection, schedule: Q04DX003 (ip), vehicle: saline with Tween-80",101 % of control
same,T/C,"endpoint: mean survival time, dose: 10.0 mg/kg/injection, schedule: Q04DX003 (ip), vehicle: saline with Tween-80",90 % of control
same,T/C,"endpoint: mean survival time, dose: 20.0 mg/kg/injection, schedule: Q04DX003 (ip), vehicle: saline with Tween-80",90 % of control
O=C1CC(NCCO)C(=O)NN1 (stereo unspecified),T/C,[15],101 % of control
same,T/C,[16],101 % of control
same,T/C,"endpoint: mean survival time, dose: 400.0 mg/kg/injection, schedule: Q04DX003 (ip), vehicle: saline",104 % of control
CCCCCCCCN(C)Cc1cc(C(C)(C)C)cc(-c2ccccc2)c1O,T/C,[10],96 % of control
same,T/C,[11],96 % of control
same,T/C,[12],96 % of control
O=C1CC(c2ccccc2)OC(c2ccccc2Cl)C1 (stereo unspecified),T/C,[5],94 % of control
same,T/C,[13],97 % of control
same,T/C,[6],94 % of control
c1ccc(C(c2ccccc2)C(c2ccccc2)c2ccccc2)cc1,T/C,"endpoint: mean survival time, dose: 18.7 mg/kg/injection, schedule: Q01DX009 (ip), vehicle: saline with Tween-80",89 % of control
same,T/C,"endpoint: mean survival time, dose: 37.5 mg/kg/injection, schedule: Q01DX009 (ip), vehicle: saline with Tween-80",89 % of control
CCCCCCCCOC(=O)c1ccccc1C(=O)OCCCCCCCC,T/C,[10],110 % of control
same,T/C,[5],98 % of control
same,T/C,[11],102 % of control
same,T/C,[13],93 % of control
same,T/C,[12],98 % of control
same,T/C,[6],90 % of control
COc1ccc(Cc2c[n+](C)cc3cc(N=O)c(OC)cc23)cc1O,T/C,[2],104 % of control
same,T/C,[3],102 % of control
